Type in all cases: in vivo
Assay [1] has as its system B cells and T cells (CD3T, CD4T, CD8T) in PBMC. Description: Analysis of immune effector cell subpopulations in PBMC of immunized rats by flow cytometry. Particulars: Lewis rats, s.c. immunization day 0, 7, 14, 21 with saponin adjuvant. On the procedure:
(§1) Different samples of the glycoconjugates (Globo H-KLH) as prepared in Example 1 were stored at 4° C., and mixed with a saponin adjuvant under a laminar flow hood. The resultant vaccine compositions were placed on ice and transported to animal facility for subsequent immunization.
(§2) The rats were immunized on day 0, 7, 14, and 21. Peripheral blood mononuclear cells (PBMC) and plasma were collected on day 0, 3, 10, 17, 24, and 31. Spleen, lymph node, and peritoneal wash were harvested on day 31.
The peripheral blood mononuclear cells (PBMCs) were isolated from the animals and then various immune effector cell subpopulations in the PBMC were identified by flow cytometry using specific antibodies against different cell markers The PBMCs, isolated from the immunized rats on day 0, 3, 10, 17, 24, and 31, were stained with different fluorescence (FITC)-conjugated antibodies and placed on ice for 30 minutes.

Assay [2] concerns Globo H-specific IgG and IgM antibodies. Kind of assay: Globo H-specific antibody test by ELISA in plasma of immunized rats. Particulars: Lewis rats, after immunization. Here is the method:
as §1, §2
The production of Globo H-specific antibodies in the plasma from the immunized rats was determined by ELISA assay. […] There was no response of Globo H-specific IgG and IgM antibody in rats treated with PBS only.

Assay [3] concerns Globo H-specific IgM antibody. Description: Immunization in mice with different Globo H:KLH ratios and antibody test by ELISA. Particulars: Balb/c mice, s.c. day 0, 7, 14, 21, with saponin adjuvant, sera, compared with PBS control or between weight ratios. On the procedure: Different samples of the glycoconjugates (Globo H-KLH) were stored at 4° C., and mixed with a saponin adjuvant under a laminar flow hood. The resultant vaccine compositions were placed on ice and transported to animal facility for subsequent immunization.
Balb/c mice of approximately eight weeks old were given Globo H-KLH glycoconjugate with different carbohydrate-to-protein (Globo H: KLH) ratios once every week for four weeks (Day 0, 7, 14, and 21) via subcutaneous injection. Blood samples were collected through retro-orbital or facial vein without anticoagulant pre-immune or Day 0, and three days after each vaccination (Day 10, 17 and 24). Samples were then centrifuged to separate sera and red cells. Sera were collected and stored at −20° C., which were later analyzed by ELISA. Mann-Whitney t-test was used for statistical analysis.

Consider one substance from US20160339089A1, “IMMUNOGENIC/THERAPEUTIC GLYCOCONJUGATE COMPOSITIONS AND USES THEREOF” (OBI PHARMA, INC., priority 2014, published 2016).

For the substance “Fucα(1→2) Galβ(1→3) GalNAcβ(1→3) Galα(1→4) Galβ(1→4) Gluβ(1-O-ethylhydrazyl-1-carbonyl-cyclohexyl-4-(methyl-N-maleimido)-3-(thiobutyl-imidyl)-Keyhole Limpet Hemocyanin (KLH) [OBI-822]”, in assay [1], the “day at which CD3T, CD4T and CD8T cells appeared” value amounted to 24 days; the “day at which the B cell population first appeared” value is 3 days. Besides, in assay [1] (flow cytometry), the “expansion of B cells and T cells compared to the PBS control group” value is “significantly expanded”. Besides, in assay [2], the “time at which titers of Globo H-specific IgG began to rise” value came to 10 days and the “time at which titers of Globo H-specific IgG peaked” value worked out at 17 days. Also, the “Globo H-specific IgM antibody responses” value in assay [3] is on record as “significantly induce”.
